Measured values: paper PMC10709007, “GPR162 is a beta cell CART receptor” (iScience, 2023)
Where no end group is shown, it is not given here.

How the values were obtained:
GPR160 = test: Proximity ligation assay (PLA) CART-GPR160 in INS-1 832/13 cells; format: binding, rat; details: 10^-7M CARTp55-102, 15 minutes (Figure S3B), n = 8
Description: INS-1 832/13 cells were seeded in 8-well tissue culture chambers (Sarstedt, Nümbrecht, Germany). […] Cells were rinsed quickly in ice-cold 1XPBS and then washed twice with ice-cold PBS. Cells were then fixed for 20 min in 4% paraformaldehyde, washed 2 × 10 min in 1XPBS and permeabilized for 15 min in PBS +0.25% Triton X-100. Proximity ligation assay (PLA) (DuoLink In situ Red Starter Kit Goat/Rabbit, Sigma Aldrich) was performed according to the instructions provided by the manufacturers. The following antibody combinations were used for the PLA: goat anti-GPR162 (sc-138323, dilution 1:500, Santa Cruz) with rabbit anti-CART (code 2059A, dilution 1:5000, kindly provided by Dr. Jes T. Clausen, Novo Nordisk, Måløv, Denmark), and goat anti-CART (code sc-18068, dilution 1:400, Santa Cruz) with rabbit anti-GPR162 (code PA5-33655, dilution 1:500, Thermo Scientific). Anti-rabbit GPR160 (code PA5-33650) was combined with anti-goat CART (code sc-18068 from Santa Cruz). Anti-rabbit GNA13 (PA5-100644) was combined with anti-goat GPR162 (sc-138323). Negative controls were omission of both antibodies and the combination of the CART antibody with an antibody toward a receptor with a known ligand. […]

GIP receptor = test: Proximity ligation assay (PLA) CART-GIP receptor (specificity control); format: binding, rat; details: control experiment, goat anti-CART with rabbit anti-GIP receptor
Description: INS-1 832/13 cells were seeded in 8-well tissue culture chambers (Sarstedt, Nümbrecht, Germany). 10^−7M rat CARTp55-102 (Phoenix Pharmaceuticals, Burlingame, CA) was added to fresh media and cells were incubated for 5 min in a humidified atmosphere (37°C, 5% CO2). Cells were rinsed quickly in ice-cold 1XPBS and then washed twice with ice-cold PBS. Cells were then fixed for 20 min in 4% paraformaldehyde, washed 2 × 10 min in 1XPBS and permeabilized for 15 min in PBS +0.25% Triton X-100. Proximity ligation assay (PLA) (DuoLink In situ Red Starter Kit Goat/Rabbit, Sigma Aldrich) was performed according to the instructions provided by the manufacturers. The following antibody combinations were used for the PLA: goat anti-GPR162 (sc-138323, dilution 1:500, Santa Cruz) with rabbit anti-CART (code 2059A, dilution 1:5000, kindly provided by Dr. Jes T. Clausen, Novo Nordisk, Måløv, Denmark), and goat anti-CART (code sc-18068, dilution 1:400, Santa Cruz) with rabbit anti-GPR162 (code PA5-33655, dilution 1:500, Thermo Scientific). Anti-rabbit GPR160 (code PA5-33650) was combined with anti-goat CART (code sc-18068 from Santa Cruz). Anti-rabbit GNA13 (PA5-100644) was combined with anti-goat GPR162 (sc-138323). Negative controls were omission of both antibodies and the combination of the CART antibody with an antibody toward a receptor with a known ligand. […]

INS-1 832/13 cells = test: Glucose-stimulated insulin secretion (GSIS) in INS-1 832/13; format: cell-based, rat; details: 10^-7M CARTp55-102 24 h before GSIS, 16.7 mM glucose, 10 μM IBMX
Description: GSIS was measured 72 h after Cartpt KD. INS-1 832/13 cells were washed twice and incubated for 2 h in 2.8 mM glucose HEPES-buffered saline solution (HBSS): 114 mM NaCl, 4.7 mM KCl, 1.2 mM KH2PO4, 1.16 mM MgSO4, 20 mM HEPES, 2.5 mM CaCl2, 25.5 mM NaHCO3, 0.2% BSA, pH 7.2, followed by 1-h stimulation in the same buffer containing 2.8 mM, 16.7 mM glucose, 16.7 mM glucose and 10 μM IBMX. In a separate experiment, control and Gpr162 KD cells were incubated with 10^−7M CARTp55-102 for 24 h before GSIS. Insulin concentrations in supernatant were determined using ELISA (Mercodia, Uppsala, Sweden) and were normalized to total protein content of each well (determined by Bio-Rad protein assay, BioRad).
Insulin from INS-1 832/13 cells and mouse islets were analyzed using ELISA (Mercodia).

rodent and human islets = details: in vivo and in vitro/ex vivo; cited from earlier work
Source text: However, much earlier, a fragment of the CART peptide was identified in extracts of sheep hypothalamus.[2] CART was later found to be expressed also in pancreatic islet cells and in nerve fibers innervating the islets.[3]^,[4]^,[5] […] Since then, multiple biological effects of CART have been established.[4]^,[7] […] However, the identity of the CART receptor mediating this effect in beta cells is unknown to date.[15] Here, we provide evidence for GPR162 as a CART receptor in beta cells.

PC-12 cells = details: RNA interference of Gpr160; cited from earlier work
Source text: (§1) When studying neuropathic pain, Yosten et al.[11] found GPR160 to be necessary for CARTp-mediated cell activation in cell culture. […] However, whether GPR160 is a receptor for CART in the b ...

[1] = test system: dorsal horn of the spinal cord; details: intrathecal injections; cited from earlier work
Source text: as §1

beta cells in islets = details: between beta cells within same islet; cited from earlier work
Source text: Our observation that CART affects cytoskeletal rearrangement is novel. Without doubt, the actin network is of great importance for properly functioning insulin secretion.[34]^,[35]^,[36]^,[37] In the present study, a large number of genes involved in cytoskeletal rearrangement were affected by both Cartpt KD and Gpr162 KD. […] Furthermore, Cartpt KD also affects genes crucial for regulation of exocytosis,[14] a process indeed dependent on ...

CARTp55-102: Rat, mouse CARTp55-102 (Phoenix Pharmaceuticals, Cat#003-62); human form Cat#003-60; cocaine- and amphetamine-regulated transcript peptide (IPIYEKKYGQVPMCDAGEQCAVRKGARIGKLCDCPRGTSCNSFLLKCL; ends and bridges not checked; cysteine pairing not given here)
CART-GPR160 interaction (PLA) (GPR160): no | CART-GPR160 interaction (PLA) (GPR160; listed as CART): failed to detect | CART-GIP receptor interaction (PLA control) (GIP receptor): no interaction was found between CART and the GIP receptor | Insulinotropic effect of CARTp55-102 on glucose and IBMX-stimulated secretion in Gpr162 KD cells (INS-1 832/13 cells; n = 6): abolished | Insulinotropic effect of CARTp55-102 on glucose and IBMX-stimulated secretion in Gpr162 KD cells (INS-1 832/13 cells; n = 6, listed as CART): near-complete abolishment | Glucagon secretion (rodent and human islets): reduces glucagon secretion | Insulin secretion (rodent and human islets): increases insulin secretion | ERK phosphorylation after Gpr160 RNA interference (PC-12 cells): RNA interference of Gpr160 prevented CART from activating c-FOS expression and phosphorylation of ERK in vitro in KATO III cells and PC-12 cells, respectively | Phosphorylation of ERK and CREB [1]: induced phosphorylation of ERK and CREB | Synchronization of Ca2+ oscillations (beta cells in islets): increased synchronization of Ca^2+ oscillations
